Tests used:
JAK3 kinase = JAK3 kinase (Homo sapiens (Human), UniProt P52333); assay: JAK3 Homogeneous Time Resolved Fluorescence (HTRF) Assay; assay type: binding; settings: for IC50: competition binding with fluorescein-labeled ATP competitive probe; for Ratio of JAK3 IC50 to IRAK4 IC50: selectivity for IRAK4 over JAK3
Method: JAK3 Homogeneous Time Resolved Fluorescence (HTRF) Assay
A time resolved FRET-based competition binding assay was used to assess test article binding to JAK3 kinase. His-tagged or GST-tagged kinase at a concentration of 1 nM was incubated with 0.2 nM Tb-labeled detection antibody (anti-His or anti-GST), test compound, and fluorescein-labeled ATP competitive probe at a concentration corresponding to the probe's equilibrium dissociation constant for one hour. Fluorescence at 495 nm and 520 nm was measured using an EnVision microplate reader to quantify FRET between Tb-labeled detection antibody and fluorescein-labeled probe. Background subtracted FRET ratios were normalized to the maximum signal obtained in the absence of test compound. These values were converted to a percent inhibition. Percent inhibition was determined for test compounds at 11 concentrations. The IC50, defined as the concentration of the competing test compound needed to reduce specific binding of the probe by 50%, was calculated using the 4 parameter logistic equation to fit the data.

IRAK4 = IRAK4 (Homo sapiens (Human), UniProt Q9NWZ3); assay: IRAK4 Inhibition Assay; assay type: biochemical; settings: ATP 500 μM; IRAK4 0.6 nM; 60 min room temperature
Method: IRAK4 Inhibition Assay The assays were performed in U-bottom 384-well plates. […] The reaction was initiated by the combination of IRAK4 with substrates and test compounds. The reaction mixture was incubated at room temperature for 60 min. and terminated by adding 45 μL of 35 mM EDTA to each sample. The reaction mixture was analyzed on the Caliper LABCHIP® 3000 (Caliper, Hopkinton, MA) by electrophoretic separation of the fluorescent substrate and phosphorylated product. Inhibition data were calculated by comparison to no enzyme control reactions for 100% inhibition and vehicle-only reactions for 0% inhibition.

Chain of IRAK4 (Q9NWZ3 whole entry, species assumed): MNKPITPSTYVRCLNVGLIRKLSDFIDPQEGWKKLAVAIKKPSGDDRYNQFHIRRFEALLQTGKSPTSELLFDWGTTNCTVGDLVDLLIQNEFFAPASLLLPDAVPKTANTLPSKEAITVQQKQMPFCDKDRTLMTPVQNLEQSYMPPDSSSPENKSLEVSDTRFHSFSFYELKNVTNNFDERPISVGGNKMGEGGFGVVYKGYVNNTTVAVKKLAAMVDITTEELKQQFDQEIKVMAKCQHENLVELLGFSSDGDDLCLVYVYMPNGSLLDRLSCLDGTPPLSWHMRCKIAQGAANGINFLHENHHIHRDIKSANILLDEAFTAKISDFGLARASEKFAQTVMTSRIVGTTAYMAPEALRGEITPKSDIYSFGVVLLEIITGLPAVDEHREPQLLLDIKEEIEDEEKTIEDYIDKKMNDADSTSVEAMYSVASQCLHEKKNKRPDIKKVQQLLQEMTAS
Chain of JAK3 kinase (P52333 whole entry): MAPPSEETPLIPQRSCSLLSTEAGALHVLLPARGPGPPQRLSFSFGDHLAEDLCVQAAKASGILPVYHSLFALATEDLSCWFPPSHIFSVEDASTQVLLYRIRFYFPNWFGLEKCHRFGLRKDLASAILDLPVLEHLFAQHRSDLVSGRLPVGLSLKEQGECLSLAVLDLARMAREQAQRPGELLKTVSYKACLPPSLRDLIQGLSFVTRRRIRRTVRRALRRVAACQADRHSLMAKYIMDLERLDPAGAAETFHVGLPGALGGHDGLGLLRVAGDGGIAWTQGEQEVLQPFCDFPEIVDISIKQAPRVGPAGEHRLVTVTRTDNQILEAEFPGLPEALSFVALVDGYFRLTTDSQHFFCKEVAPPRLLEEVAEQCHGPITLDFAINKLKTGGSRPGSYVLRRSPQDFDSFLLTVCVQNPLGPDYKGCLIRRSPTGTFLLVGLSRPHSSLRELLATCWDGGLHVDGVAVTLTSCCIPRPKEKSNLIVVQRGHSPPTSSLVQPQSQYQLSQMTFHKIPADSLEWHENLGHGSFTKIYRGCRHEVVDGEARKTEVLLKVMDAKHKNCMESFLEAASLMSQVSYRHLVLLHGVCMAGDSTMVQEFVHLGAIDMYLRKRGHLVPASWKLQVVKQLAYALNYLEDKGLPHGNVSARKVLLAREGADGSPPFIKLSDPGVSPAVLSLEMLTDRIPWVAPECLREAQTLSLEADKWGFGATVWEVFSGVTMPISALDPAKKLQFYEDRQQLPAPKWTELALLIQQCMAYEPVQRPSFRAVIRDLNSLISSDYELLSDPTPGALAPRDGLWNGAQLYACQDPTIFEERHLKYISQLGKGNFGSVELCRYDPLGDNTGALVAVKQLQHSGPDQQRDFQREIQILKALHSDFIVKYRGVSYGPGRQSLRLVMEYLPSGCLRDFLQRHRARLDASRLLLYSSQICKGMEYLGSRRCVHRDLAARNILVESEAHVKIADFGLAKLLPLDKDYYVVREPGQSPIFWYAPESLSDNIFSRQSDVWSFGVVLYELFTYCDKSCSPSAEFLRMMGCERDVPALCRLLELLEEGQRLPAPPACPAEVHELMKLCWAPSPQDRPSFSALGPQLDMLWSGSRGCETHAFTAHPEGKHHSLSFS

CCOC(=O)N[C@H]1CC[C@H](NC(=O)c2cnn3cc(-c4ccncc4F)cc3c2NC(C)C)CC1 [Example 67, ethyl ((1r,4r)-4-(6-(3-fluoropyridin-4-yl)-4-(isopropylamino)pyrrolo[1,2-b]pyridazine-3-carboxamido)cyclohexyl)carbamate]
IC50 (JAK3 kinase): > 50000 nM | Ratio of JAK3 IC50 to IRAK4 IC50 (JAK3 kinase): 3846 | IC50 (IRAK4): 13 nM

CC(C)Nc1c(C(=O)NC[C@@H](F)C(C)(C)O)cnc2cc(-c3cccc(F)c3)nn12 [Example 140, (R)—N-(2-fluoro-3-hydroxy-3-methylbutyl)-2-(3-fluorophenyl)-7-(isopropylamino)pyrazolo[1,5-a]pyrimidine-6-carboxamide]
IC50 (JAK3 kinase): > 50000 nM | Ratio of JAK3 IC50 to IRAK4 IC50 (JAK3 kinase): >610 | IC50 (IRAK4): 82 nM

CC(=O)N1CCC(NC(=O)c2cnn3cc(-c4ccncc4F)nc3c2NC(C)C)CC1 [Example 112, N-(1-acetylpiperidin-4-yl)-2-(3-fluoropyridin-4-yl)-8-(isopropylamino)imidazo[1,2-b]pyridazine-7-carboxamide]
IC50 (JAK3 kinase): > 10000 nM | Ratio of JAK3 IC50 to IRAK4 IC50 (JAK3 kinase): >909 | IC50 (IRAK4): 11 nM

COc1cc(-c2cc3ncc(C(=O)NC[C@@H](F)C(C)(C)O)c(NC(C)C)n3n2)ccn1 [Example 148, (R)—N-(2-fluoro-3-hydroxy-3-methylbutyl)-7-(isopropylamino)-2-(2-methoxypyridin-4-yl)pyrazolo[1,5-a]pyrimidine-6-carboxamide]
IC50 (JAK3 kinase): > 10000 nM | Ratio of JAK3 IC50 to IRAK4 IC50 (JAK3 kinase): >164 | IC50 (IRAK4): 61 nM

CC(C)Nc1c(C(=O)NC[C@@H](F)C(C)(C)O)cnc2cc(-c3ccccc3F)nn12 [Example 135, (R)—N-(2-fluoro-3-hydroxy-3-methylbutyl)-2-(2-fluorophenyl)-7-(isopropylamino)pyrazolo[1,5-a]pyrimidine-6-carboxamide]
IC50 (JAK3 kinase): > 10000 nM | Ratio of JAK3 IC50 to IRAK4 IC50 (JAK3 kinase): >455 | IC50 (IRAK4): 22 nM

CC(C)Nc1c(C(=O)NC[C@@H](F)C(C)(C)O)cnn2cc(-c3ccnn3C)cc12 [Example 33, (R)—N-(2-fluoro-3-hydroxy-3-methylbutyl)-4-(isopropylamino)-6-(1-methyl-1H-pyrazol-5-yl) pyrrolo[1,2-b]pyridazine-3-carboxamide]
IC50 (JAK3 kinase): > 50000 nM | Ratio of JAK3 IC50 to IRAK4 IC50 (JAK3 kinase): >1923 | IC50 (IRAK4): 26 nM

CC(C)Nc1c(C(=O)NCCN2CCOCC2)cnn2cc(-c3ccncc3F)nc12 [Example 106, 2-(3-fluoropyridin-4-yl)-8-(isopropylamino)-N-(2-morpholinoethyl)imidazo[1,2-b]pyridazine-7-carboxamide]
IC50 (JAK3 kinase): > 50000 nM | Ratio of JAK3 IC50 to IRAK4 IC50 (JAK3 kinase): >2273 | IC50 (IRAK4): 22 nM

CC(C)Nc1c(C(=O)NC[C@@H](F)C(C)(C)O)cnc2cc(-c3ccncc3F)nn12 [Example 137, (R)—N-(2-fluoro-3-hydroxy-3-methylbutyl)-2-(3-fluoropyridin-4-yl)-7-(isopropylamino) pyrazolo[1,5-a]pyrimidine-6-carboxamide]
IC50 (JAK3 kinase): > 10000 nM | Ratio of JAK3 IC50 to IRAK4 IC50 (JAK3 kinase): >1190 | IC50 (IRAK4): 8.4 nM

CC(C)Nc1c(C(=O)NC[C@@H](F)C(C)(C)O)cnc2cc(-c3cncc(C(C)(C)O)c3)nn12 [Example 150, (R)—N-(2-fluoro-3-hydroxy-3-methylbutyl)-2-(5-(2-hydroxypropan-2-yl)pyridin-3-yl)-7-(isopropylamino)pyrazolo[1,5-a]pyrimidine-6-carboxamide]
IC50 (JAK3 kinase): > 10000 nM | Ratio of JAK3 IC50 to IRAK4 IC50 (JAK3 kinase): >18 | IC50 (IRAK4): 560 nM

CC(C)Nc1c(C(=O)NC[C@@H](F)C(C)(C)O)cnn2cc(-c3ccc(C#N)nc3)nc12 [Example 101, (R)-2-(6-cyanopyridin-3-yl)-N-(2-fluoro-3-hydroxy-3-methylbutyl)-8-(isopropylamino)imidazo[1,2-b]pyridazine-7-carboxamide]
IC50 (JAK3 kinase): > 50000 nM | Ratio of JAK3 IC50 to IRAK4 IC50 (JAK3 kinase): >714 | IC50 (IRAK4): 70 nM

CC(C)Nc1c(C(=O)NC[C@@H](F)C(C)(C)O)cnn2cc(Nc3ccncn3)cc12 [Example 43, (R)—N-(2-fluoro-3-hydroxy-3-methylbutyl)-4-(isopropylamino)-6-(pyrimidin-4-ylamino) pyrrolo[1,2-b] pyridazine-3-carboxamide]
IC50 (JAK3 kinase): > 50000 nM | Ratio of JAK3 IC50 to IRAK4 IC50 (JAK3 kinase): >617 | IC50 (IRAK4): 81 nM

CC(C)Nc1c(C(=O)NC[C@@H](F)C(C)(C)O)cnc2cc(-c3cc[nH]c(=O)c3)nn12 [Example 154, (R)—N-(2-fluoro-3-hydroxy-3-methylbutyl)-7-(isopropylamino)-2-(2-oxo-1,2-dihydropyridin-4-yl)pyrazolo[1,5-a]pyrimidine-6-carboxamide]
IC50 (JAK3 kinase): > 50000 nM | Ratio of JAK3 IC50 to IRAK4 IC50 (JAK3 kinase): >538 | IC50 (IRAK4): 93 nM

CC(C)Nc1c(C(=O)NC[C@@H](F)C(C)(C)O)cnn2cc(-c3cccc(C#N)c3)nc12 [Example 98, (R)-2-(3-cyanophenyl)-N-(2-fluoro-3-hydroxy-3-methylbutyl)-8-(isopropylamino)imidazo[1,2-b]pyridazine-7-carboxamide]
IC50 (JAK3 kinase): > 50000 nM | Ratio of JAK3 IC50 to IRAK4 IC50 (JAK3 kinase): >208 | IC50 (IRAK4): 240 nM

CC(C)Nc1c(C(=O)NC[C@@H](F)C(C)(C)O)cnn2cc(-c3ccccn3)cc12 [Example 16, (R)—N-(2-fluoro-3-hydroxy-3-methylbutyl)-4-(isopropylamino)-6-(pyridin-2-yl)pyrrolo[1,2-b]pyridazine-3-carboxamide]
IC50 (JAK3 kinase): > 50000 nM | Ratio of JAK3 IC50 to IRAK4 IC50 (JAK3 kinase): >2941 | IC50 (IRAK4): 17 nM

CC(C)Nc1c(C(=O)NC[C@@H](F)C(C)(C)O)cnn2cc(-c3cnn4cc(Cl)cnc34)cc12 [Example 38, (R)-6-(6-chloropyrazolo[1,5-a]pyrimidin-3-yl)-N-(2-fluoro-3-hydroxy-3-methylbutyl)-4-(isopropylamino)pyrrolo[1,2-b]pyridazine-3-carboxamide]
IC50 (JAK3 kinase): > 9900 nM | Ratio of JAK3 IC50 to IRAK4 IC50 (JAK3 kinase): >254 | IC50 (IRAK4): 39 nM

CC(C)Nc1c(C(=O)NC[C@@H](F)C(C)(C)O)cnn2cc(-c3ccc(F)cn3)cc12 [Example 18, (R)—N-(2-fluoro-3-hydroxy-3-methylbutyl)-6-(5-fluoropyridin-2-yl)-4-(isopropylamino)pyrrolo[1,2-b]pyridazine-3-carboxamide]
IC50 (JAK3 kinase): > 50000 nM | Ratio of JAK3 IC50 to IRAK4 IC50 (JAK3 kinase): >4167 | IC50 (IRAK4): 12 nM

CC(C)Nc1c(C(=O)NC[C@@H](F)C(C)(C)O)cnc2cc(-c3ccncc3)nn12 [Example 122, (R)—N-(2-fluoro-3-hydroxy-3-methylbutyl)-7-(isopropylamino)-2-(pyridin-4-yl)pyrazolo[1,5-a] pyrimidine-6-carboxamide]
IC50 (JAK3 kinase): > 10000 nM | Ratio of JAK3 IC50 to IRAK4 IC50 (JAK3 kinase): >625 | IC50 (IRAK4): 16 nM

CC(C)(O)CCNc1c(C(=O)NC[C@@H](F)C(C)(C)O)cnn2cc(-c3cccc(F)c3)cc12 [Example 26, (R)—N-(2-fluoro-3-hydroxy-3-methylbutyl)-6-(3-fluorophenyl)-4-((3-hydroxy-3-methylbutyl)amino)pyrrolo[1,2-b] pyridazine-3-carboxamide]
IC50 (JAK3 kinase): > 50000 nM | Ratio of JAK3 IC50 to IRAK4 IC50 (JAK3 kinase): >135 | IC50 (IRAK4): 370 nM

CC(C)Nc1c(C(=O)NC[C@@H](F)C(C)(C)O)cnn2cccc12 [Example 96, (R)—N-(2-fluoro-3-hydroxy-3-methylbutyl)-4-(isopropylamino)pyrrolo[1,2-b]pyridazine-3-carboxamide]
IC50 (JAK3 kinase): > 50000 nM | Ratio of JAK3 IC50 to IRAK4 IC50 (JAK3 kinase): >68 | IC50 (IRAK4): 740 nM

CC(C)(O)[C@H](F)CNC(=O)c1cnn2cc(-c3cccnc3)cc2c1NC1CC1 [Example 32, (R)-4-(cyclopropylamino)-N-(2-fluoro-3-hydroxy-3-methylbutyl)-6-(pyridin-3-yl)pyrrolo[1,2-b]pyridazine-3-carboxamide]
IC50 (JAK3 kinase): > 50000 nM | Ratio of JAK3 IC50 to IRAK4 IC50 (JAK3 kinase): >4545 | IC50 (IRAK4): 11 nM

CC(C)Nc1c(C(=O)NC[C@@H](F)C(C)(C)O)cnn2cc(-c3cnc(N)nc3)cc12 [Example 15, (R)-6-(2-aminopyrimidin-5-yl)-N-(2-fluoro-3-hydroxy-3-methylbutyl)-4-(isopropylamino) pyrrolo[1,2-b]pyridazine-3-carboxamide]
IC50 (JAK3 kinase): > 50000 nM | Ratio of JAK3 IC50 to IRAK4 IC50 (JAK3 kinase): >2273 | IC50 (IRAK4): 22 nM

CC(=O)N[C@H]1CC[C@H](NC(=O)c2cnn3cc(-c4cn[nH]c4)cc3c2NC(C)C)CC1 [Example 61, N-((1r,4r)-4-acetamidocyclohexyl)-4-(isopropylamino)-6-(1H-pyrazol-4-yl)pyrrolo[1,2-b]pyridazine-3-carboxamide]
IC50 (JAK3 kinase): > 50000 nM | Ratio of JAK3 IC50 to IRAK4 IC50 (JAK3 kinase): >4545 | IC50 (IRAK4): 11 nM

CC(C)Nc1c(C(=O)NC[C@@H](F)C(C)(C)O)cnn2cc(Nc3cc(C#N)ccn3)cc12 [Example 41, (R)-6-((4-cyanopyridin-2-yl)amino)-N-(2-fluoro-3-hydroxy-3-methylbutyl)-4-(isopropylamino)pyrrolo[1,2-b]pyridazine-3-carboxamide]
IC50 (JAK3 kinase): > 50000 nM | Ratio of JAK3 IC50 to IRAK4 IC50 (JAK3 kinase): >81 | IC50 (IRAK4): 620 nM

From patent US12570659B2, “Bicyclic heteroaryl compounds useful as IRAK4 inhibitors” (BRISTOL-MYERS SQUIBB COMPANY, priority 2019, dated 2026)
